Data as given in US9340590B2 (priority 2011, dated 2016).
Where two headings read alike, the source gives them in different places. Positions of bridges follow the written chain, without caps; N, C: chain ends. Non-standard residues stand in square brackets, D forms with d. Residues, ends and D or L forms follow the SMILES beside them. Phe(4-tBu) = CC(C)(C)c1ccc(C[C@H](N)C(=O)O)cc1; Phe(4-I) = N[C@@H](Cc1ccc(I)cc1)C(=O)O; 1Nal = N[C@@H](Cc1cccc2ccccc12)C(=O)O

Key:
Experiment in all cases: cell-based
hNav1.3 = hNav1.3 (Homo sapiens, UniProt Q9NY46); settings: IonWorks Quattro, read-out: IWQ Use Nav1.3
hNav1.7 = hNav1.7 (Homo sapiens, UniProt Q15858); type: cell-based
hNav1.5 = hNav1.5 (Homo sapiens, UniProt Q14524); settings: IonWorks Quattro, read-out: IWQ Use Nav1.5
[1] = use-dependent protocol, hNav1.3
[2] = IonWorks Quattro, use-dependent protocol, hNav1.7, read-out: IWQ Use Nav1.7
[3] = use-dependent protocol, hNav1.5
[4] = IonWorks Quattro, use-dependent block, hNav1.7, read-out: IWQ Use Nav1.7

hNav1.5, sequence (Q14524 whole entry, looked up): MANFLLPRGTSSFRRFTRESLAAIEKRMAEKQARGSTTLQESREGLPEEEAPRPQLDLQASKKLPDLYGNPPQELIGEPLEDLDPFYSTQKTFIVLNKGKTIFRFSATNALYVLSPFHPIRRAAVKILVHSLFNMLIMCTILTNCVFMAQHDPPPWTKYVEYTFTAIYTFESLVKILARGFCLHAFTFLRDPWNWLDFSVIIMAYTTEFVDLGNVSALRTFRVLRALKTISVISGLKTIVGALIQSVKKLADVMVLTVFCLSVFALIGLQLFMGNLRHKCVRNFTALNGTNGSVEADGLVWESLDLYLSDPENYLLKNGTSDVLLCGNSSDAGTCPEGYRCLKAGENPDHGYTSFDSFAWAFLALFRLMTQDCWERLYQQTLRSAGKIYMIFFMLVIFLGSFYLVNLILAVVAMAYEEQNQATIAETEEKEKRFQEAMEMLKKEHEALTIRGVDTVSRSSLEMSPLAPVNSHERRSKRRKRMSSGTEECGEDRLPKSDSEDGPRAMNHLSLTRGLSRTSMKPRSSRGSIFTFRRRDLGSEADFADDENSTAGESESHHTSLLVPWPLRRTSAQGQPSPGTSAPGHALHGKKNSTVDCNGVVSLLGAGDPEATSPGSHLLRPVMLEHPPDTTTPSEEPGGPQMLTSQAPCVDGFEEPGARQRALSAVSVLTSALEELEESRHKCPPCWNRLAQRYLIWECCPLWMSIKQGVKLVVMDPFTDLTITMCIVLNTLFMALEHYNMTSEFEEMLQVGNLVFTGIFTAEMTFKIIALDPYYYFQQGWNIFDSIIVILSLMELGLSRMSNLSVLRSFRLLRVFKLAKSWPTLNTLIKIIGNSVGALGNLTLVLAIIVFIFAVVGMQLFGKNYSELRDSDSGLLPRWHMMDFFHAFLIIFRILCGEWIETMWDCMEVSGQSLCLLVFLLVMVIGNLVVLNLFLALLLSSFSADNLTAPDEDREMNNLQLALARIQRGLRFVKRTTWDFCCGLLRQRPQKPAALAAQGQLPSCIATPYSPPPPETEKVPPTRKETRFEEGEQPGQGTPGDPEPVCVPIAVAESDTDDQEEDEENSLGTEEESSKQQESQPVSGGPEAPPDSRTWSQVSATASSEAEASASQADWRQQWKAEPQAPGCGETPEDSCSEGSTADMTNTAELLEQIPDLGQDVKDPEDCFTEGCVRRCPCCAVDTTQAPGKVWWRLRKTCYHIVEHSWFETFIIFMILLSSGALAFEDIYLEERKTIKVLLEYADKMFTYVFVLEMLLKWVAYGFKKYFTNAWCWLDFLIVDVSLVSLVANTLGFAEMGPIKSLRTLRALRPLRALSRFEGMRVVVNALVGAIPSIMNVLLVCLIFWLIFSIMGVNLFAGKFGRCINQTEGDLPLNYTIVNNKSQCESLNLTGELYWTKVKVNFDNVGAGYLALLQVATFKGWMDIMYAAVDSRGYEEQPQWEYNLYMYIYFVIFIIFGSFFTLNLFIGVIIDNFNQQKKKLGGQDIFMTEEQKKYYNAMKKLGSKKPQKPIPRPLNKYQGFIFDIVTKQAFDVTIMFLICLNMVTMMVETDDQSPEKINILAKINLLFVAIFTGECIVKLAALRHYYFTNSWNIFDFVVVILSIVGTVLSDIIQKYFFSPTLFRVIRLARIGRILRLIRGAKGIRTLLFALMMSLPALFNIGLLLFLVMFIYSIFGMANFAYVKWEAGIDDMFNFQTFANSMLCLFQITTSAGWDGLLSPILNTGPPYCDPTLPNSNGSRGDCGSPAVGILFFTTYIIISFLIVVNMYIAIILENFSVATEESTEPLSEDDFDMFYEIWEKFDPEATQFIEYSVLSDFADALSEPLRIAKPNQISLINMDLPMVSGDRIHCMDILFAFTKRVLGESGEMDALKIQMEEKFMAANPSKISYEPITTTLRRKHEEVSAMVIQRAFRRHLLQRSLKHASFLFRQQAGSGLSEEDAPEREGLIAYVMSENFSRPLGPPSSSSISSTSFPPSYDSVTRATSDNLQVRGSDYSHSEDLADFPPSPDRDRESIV
hNav1.3, sequence (Q9NY46 whole entry, looked up): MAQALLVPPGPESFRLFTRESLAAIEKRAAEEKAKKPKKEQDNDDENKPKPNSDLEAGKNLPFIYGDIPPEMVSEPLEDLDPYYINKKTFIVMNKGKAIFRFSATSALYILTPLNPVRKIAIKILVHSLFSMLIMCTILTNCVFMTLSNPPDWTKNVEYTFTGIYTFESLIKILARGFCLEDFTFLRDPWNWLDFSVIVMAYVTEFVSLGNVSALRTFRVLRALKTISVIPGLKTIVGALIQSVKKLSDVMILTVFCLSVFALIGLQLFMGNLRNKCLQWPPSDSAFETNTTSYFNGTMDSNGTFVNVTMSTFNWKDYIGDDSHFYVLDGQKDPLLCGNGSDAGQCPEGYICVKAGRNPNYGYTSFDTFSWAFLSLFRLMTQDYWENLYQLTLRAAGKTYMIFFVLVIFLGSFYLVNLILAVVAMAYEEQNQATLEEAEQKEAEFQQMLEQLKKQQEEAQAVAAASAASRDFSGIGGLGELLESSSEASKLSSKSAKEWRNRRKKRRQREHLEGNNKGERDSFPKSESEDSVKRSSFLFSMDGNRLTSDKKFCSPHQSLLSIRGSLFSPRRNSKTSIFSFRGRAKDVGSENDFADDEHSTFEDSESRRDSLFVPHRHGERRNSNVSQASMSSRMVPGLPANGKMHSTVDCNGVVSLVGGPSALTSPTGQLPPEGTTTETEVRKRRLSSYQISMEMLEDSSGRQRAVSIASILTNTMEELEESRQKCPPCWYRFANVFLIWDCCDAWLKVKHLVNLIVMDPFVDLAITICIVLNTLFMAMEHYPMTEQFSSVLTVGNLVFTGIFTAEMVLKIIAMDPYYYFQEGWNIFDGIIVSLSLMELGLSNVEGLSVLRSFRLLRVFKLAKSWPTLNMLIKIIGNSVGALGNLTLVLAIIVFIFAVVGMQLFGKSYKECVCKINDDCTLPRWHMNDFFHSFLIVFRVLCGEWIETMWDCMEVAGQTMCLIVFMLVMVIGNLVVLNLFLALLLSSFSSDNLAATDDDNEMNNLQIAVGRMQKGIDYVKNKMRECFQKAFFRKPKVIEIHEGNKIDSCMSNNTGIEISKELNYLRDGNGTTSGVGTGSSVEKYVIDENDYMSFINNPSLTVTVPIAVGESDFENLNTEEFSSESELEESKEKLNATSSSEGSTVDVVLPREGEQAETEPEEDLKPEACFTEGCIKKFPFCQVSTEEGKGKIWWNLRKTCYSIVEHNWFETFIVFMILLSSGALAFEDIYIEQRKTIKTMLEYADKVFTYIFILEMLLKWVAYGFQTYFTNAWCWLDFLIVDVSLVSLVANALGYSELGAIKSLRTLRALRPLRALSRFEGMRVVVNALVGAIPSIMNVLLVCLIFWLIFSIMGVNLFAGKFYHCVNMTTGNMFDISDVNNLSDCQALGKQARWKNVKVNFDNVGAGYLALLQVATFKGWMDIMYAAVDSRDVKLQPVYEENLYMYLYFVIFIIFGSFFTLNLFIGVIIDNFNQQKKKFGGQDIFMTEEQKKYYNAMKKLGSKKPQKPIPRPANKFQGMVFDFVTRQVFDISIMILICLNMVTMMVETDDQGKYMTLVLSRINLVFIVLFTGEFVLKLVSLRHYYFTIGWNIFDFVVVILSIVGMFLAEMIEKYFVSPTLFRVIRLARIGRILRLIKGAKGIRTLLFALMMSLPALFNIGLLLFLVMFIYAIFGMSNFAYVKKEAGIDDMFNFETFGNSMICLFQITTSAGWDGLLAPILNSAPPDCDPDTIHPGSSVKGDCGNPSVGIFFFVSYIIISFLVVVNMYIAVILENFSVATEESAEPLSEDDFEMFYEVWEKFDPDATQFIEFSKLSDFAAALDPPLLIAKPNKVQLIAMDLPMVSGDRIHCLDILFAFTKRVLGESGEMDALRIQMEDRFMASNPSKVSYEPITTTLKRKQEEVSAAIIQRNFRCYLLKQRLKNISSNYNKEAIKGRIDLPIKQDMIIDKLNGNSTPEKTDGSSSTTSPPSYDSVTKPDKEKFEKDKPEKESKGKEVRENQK

## CC[C@H](C)[C@@H]1NC(=O)[C@@H]2CSSC[C@@H]3NC(=O)[C@H](C(C)C)NC(=O)[C@H](CC(C)C)NC(=O)[C@H](CC(N)=O)NC(=O)[C@@H]4CCCN4C(=O)[C@H](CCCCN)NC(=O)[C@H](CSSC[C@H](NC(=O)[C@@H](N)CC(=O)O)C(=O)N[C@@H](CC(C)C)C(=O)NCC(=O)N[C@@H](Cc4ccccc4)C(=O)N[C@@H](CCSC)C(=O)N[C@@H](CCCNC(=N)N)C(=O)N[C@@H](CCCCN)C(=O)N2)NC(=O)[C@H](CSSC[C@@H](C(=O)N[C@@H](CCCCN)C(=O)N[C@@H](Cc2ccc(O)cc2)C(=O)N[C@H](C(=O)N[C@@H](Cc2ccccc2)C(N)=O)C(C)C)NC(=O)[C@H](Cc2c[nH]c4ccccc24)NC(=O)[C@H](CCCCN)NC(=O)[C@H](Cc2cnc[nH]2)NC(=O)[C@H]([C@@H](C)O)NC(=O)[C@H](CCCNC(=N)N)NC(=O)[C@H](CO)NC3=O)NC(=O)[C@H](CCCCN)NC(=O)[C@H](CC(=O)O)NC(=O)[C@H](CC(N)=O)NC(=O)[C@H](CC(=O)O)NC(=O)[C@@H]2CCCN2C1=O [compound 49] (H-DCLGFMRKCIPDNDKCCKPNLVCSRTHKWCKYVF-NH2; disulfide 2-17, 9-23, 16-30)
hNav1.3; Use
  IC50: 0.21 µM
hNav1.7
  IC50: 0.3 µM
hNav1.5; Use
  IC50: 17.6 µM

## CCCCCCCC[C@@H]1NC(=O)CNC(=O)[C@H](CC(C)C)NC(=O)[C@@H](NC(=O)[C@@H](N)CC(=O)O)CSSC[C@@H]2NC(=O)[C@@H]3CSSC[C@@H](C(=O)N[C@@H](CCCCN)C(=O)N[C@@H](Cc4ccc(O)cc4)C(=O)N[C@H](C(=O)N[C@@H](Cc4ccccc4)C(N)=O)C(C)C)NC(=O)[C@H](Cc4c[nH]c5ccccc45)NC(=O)[C@H](CCCCN)NC(=O)[C@H](Cc4c[nH]cn4)NC(=O)[C@H]([C@@H](C)O)NC(=O)[C@H](CCCNC(=N)N)NC(=O)[C@H](CO)NC(=O)[C@H](CSSC[C@H](NC(=O)[C@H](CCCCN)NC(=O)[C@H](CCCNC(=N)N)NC(=O)[C@H](CC(C)C)NC1=O)C(=O)N[C@@H]([C@@H](C)CC)C(=O)N1CCC[C@H]1C(=O)N[C@@H](CC(=O)O)C(=O)N[C@@H](CC(N)=O)C(=O)N[C@@H](CC(=O)O)C(=O)N[C@@H](CCCCN)C(=O)N3)NC(=O)[C@H](C(C)C)NC(=O)[C@H](CC(C)C)NC(=O)[C@H](CC(N)=O)NC(=O)[C@@H]1CCCN1C(=O)[C@H](CCCNC(=N)N)NC2=O [compound 639]
hNav1.3; [1]
  IC50: 0.033 µM
hNav1.7; [2]
  IC50: 0.015 µM
hNav1.5; [3]
  IC50: 1.7 µM

## CC(C)C[C@@H]1NC(=O)[C@H](C)NC(=O)CNC(=O)[C@H](CC(C)C)NC(=O)[C@@H](NC(=O)[C@@H](N)CC(=O)O)CSSC[C@@H]2NC(=O)[C@@H]3CSSC[C@@H](C(=O)N[C@@H](CCCCN)C(=O)N[C@@H](Cc4ccc(O)cc4)C(=O)N[C@H](C(=O)N[C@@H](Cc4ccccc4)C(N)=O)C(C)C)NC(=O)[C@H](Cc4c[nH]c5ccccc45)NC(=O)[C@H](CCCCN)NC(=O)[C@H](Cc4c[nH]cn4)NC(=O)[C@H]([C@@H](C)O)NC(=O)[C@H](CCCNC(=N)N)NC(=O)[C@H](CO)NC(=O)[C@H](CSSC[C@H](NC(=O)[C@H](CCCCN)NC(=O)[C@H](CCCNC(=N)N)NC1=O)C(=O)N[C@@H](CCC(=O)O)C(=O)N1CCC[C@H]1C(=O)N[C@@H](CC(=O)O)C(=O)N[C@@H](CC(N)=O)C(=O)N[C@@H](CC(=O)O)C(=O)N[C@@H](CCCCN)C(=O)N3)NC(=O)[C@H](C(C)C)NC(=O)[C@H](CC(C)C)NC(=O)[C@H](CC(N)=O)NC(=O)[C@@H]1CCCN1C(=O)[C@H](CCCNC(=N)N)NC2=O [compound 723]
hNav1.3; use-dependent block, hNav1.3
  IC50: 1.2 µM
hNav1.7; [4]
  IC50: 0.38 µM
hNav1.5; use-dependent block, hNav1.5
  IC50: > 50 µM

## CC[C@H](C)[C@@H]1NC(=O)[C@@H]2CSSC[C@@H]3NC(=O)[C@H](C(C)C)NC(=O)[C@H](CC(C)C)NC(=O)[C@H](CC(N)=O)NC(=O)[C@@H]4CCCN4C(=O)[C@H](CCCNC(=N)N)NC(=O)[C@H](CSSC[C@H](NC(=O)[C@@H](N)CC(=O)O)C(=O)N[C@@H](CC(C)C)C(=O)NCC(=O)N[C@@H](Cc4ccc(C(C)(C)C)cc4)C(=O)N[C@@H](Cc4ccccc4)C(=O)N[C@@H](CCCNC(=N)N)C(=O)N[C@@H](CCCCN)C(=O)N2)NC(=O)[C@H](CSSC[C@@H](C(=O)N[C@@H](CCCCN)C(=O)N[C@@H](Cc2ccc(O)cc2)C(=O)N[C@H](C(=O)N[C@@H](Cc2ccccc2)C(N)=O)C(C)C)NC(=O)[C@H](Cc2c[nH]c4ccccc24)NC(=O)[C@H](CCCCN)NC(=O)[C@H](Cc2c[nH]cn2)NC(=O)[C@H]([C@@H](C)O)NC(=O)[C@H](CCCNC(=N)N)NC(=O)[C@H](CO)NC3=O)NC(=O)[C@H](CCCCN)NC(=O)[C@H](CC(=O)O)NC(=O)[C@H](CC(N)=O)NC(=O)[C@H](CC(=O)O)NC(=O)[C@@H]2CCCN2C1=O [compound 626] (H-DCLG[Phe(4-tBu)]FRKCIPDNDKCCRPNLVCSRTHKWCKYVF-NH2; disulfide 2-17, 9-23, 16-30)
hNav1.3; [1]
  IC50: 0.021 µM
hNav1.7; [2]
  IC50: 0.052 µM
hNav1.5; [3]
  IC50: 4.7 µM

## CC[C@H](C)[C@@H]1NC(=O)[C@@H]2CSSC[C@@H]3NC(=O)[C@H](C(C)C)NC(=O)[C@H](CC(C)C)NC(=O)[C@H](CC(N)=O)NC(=O)[C@@H]4CCCN4C(=O)[C@H](CCCNC(=N)N)NC(=O)[C@H](CSSC[C@H](NC(=O)[C@@H](N)CC(=O)O)C(=O)N[C@@H](CC(C)C)C(=O)NCC(=O)N[C@@H](Cc4ccccc4)C(=O)N[C@@H](CCSC)C(=O)N[C@@H](CCCNC(=N)N)C(=O)N[C@@H](CCCCN)C(=O)N2)NC(=O)[C@H](CSSC[C@@H](C(=O)N[C@@H](CCCCN)C(=O)N[C@@H](Cc2ccc(O)cc2)C(=O)N[C@H](C(=O)N[C@@H](Cc2ccccc2)C(N)=O)C(C)C)NC(=O)[C@H](Cc2ccc(I)cc2)NC(=O)[C@H](CCCCN)NC(=O)[C@H](Cc2c[nH]cn2)NC(=O)[C@H]([C@@H](C)O)NC(=O)[C@H](CCCNC(=N)N)NC(=O)[C@H](CO)NC3=O)NC(=O)[C@H](CCCCN)NC(=O)[C@H](CC(=O)O)NC(=O)[C@H](CC(N)=O)NC(=O)[C@H](CC(=O)O)NC(=O)[C@@H]2CCCN2C1=O [compound 358] (H-DCLGFMRKCIPDNDKCCRPNLVCSRTHK[Phe(4-I)]CKYVF-NH2; disulfide 2-17, 9-23, 16-30)
hNav1.3; Table 24, use, […]
  IC50: 1.27 µM
hNav1.7; Table 24, IonWorks Quattro, use, […], read-out: IWQ Use Nav1.7
  IC50: 1.01 µM
hNav1.5; Table 24, use, […]
  IC50: 14.9 µM

## CC[C@H](C)[C@@H]1NC(=O)[C@@H]2CSSC[C@@H]3NC(=O)[C@H](C(C)C)NC(=O)[C@H](CC(C)C)NC(=O)[C@H](CC(N)=O)NC(=O)[C@@H]4CCCN4C(=O)[C@H](CCCNC(=N)N)NC(=O)[C@H](CSSC[C@H](NC(=O)[C@@H](N)CC(=O)O)C(=O)N[C@@H](CC(C)C)C(=O)NCC(=O)N[C@@H](C)C(=O)N[C@@H](Cc4ccccc4)C(=O)N[C@@H](CCCNC(=N)N)C(=O)N[C@@H](CCCCN)C(=O)N2)NC(=O)[C@H](CSSC[C@@H](C(=O)N[C@@H](CCCCN)C(=O)N[C@@H](Cc2ccc(O)cc2)C(=O)N[C@H](C(=O)N[C@@H](Cc2ccccc2)C(=O)O)C(C)C)NC(=O)[C@H](Cc2c[nH]c4ccccc24)NC(=O)[C@H](CCCNC(=N)N)NC(=O)[C@H](Cc2c[nH]cn2)NC(=O)[C@H]([C@@H](C)O)NC(=O)[C@H](CCCNC(=N)N)NC(=O)[C@H](CO)NC3=O)NC(=O)[C@H](CCCCN)NC(=O)[C@H](CC(=O)O)NC(=O)[C@H](CCC(N)=O)NC(=O)[C@H](CC(=O)O)NC(=O)[C@@H]2CCCN2C1=O [compound 847]
hNav1.3; use-dependent block, hNav1.3
  IC50: 1.7 µM
hNav1.7; [4]
  IC50: > 5 µM
hNav1.5; use-dependent block, hNav1.5
  IC50: > 5 µM

## CC[C@H](C)[C@@H]1NC(=O)[C@@H]2CSSC[C@@H]3NC(=O)[C@H](C(C)C)NC(=O)[C@H](CC(C)C)NC(=O)[C@H](CC(N)=O)NC(=O)[C@@H]4CCCN4C(=O)[C@H](CCCNC(=N)N)NC(=O)[C@H](CSSC[C@H](NC(=O)[C@@H](N)CC(=O)O)C(=O)N[C@@H](CC(C)C)C(=O)NCC(=O)N[C@@H](Cc4ccccc4)C(=O)N[C@@H](CCSC)C(=O)N[C@@H](CCCNC(=N)N)C(=O)N[C@@H](CCCCN)C(=O)N2)NC(=O)[C@H](CSSC[C@@H](C(=O)N[C@@H](CCCCN)C(=O)N[C@@H](Cc2ccc(O)cc2)C(=O)N[C@H](C(=O)N[C@@H](Cc2ccccc2)C(N)=O)C(C)C)NC(=O)[C@H](Cc2c[nH]c4ccccc24)NC(=O)[C@H](CCCCN)NC(=O)[C@H](Cc2c[nH]cn2)NC(=O)[C@H]([C@@H](C)O)NC(=O)[C@H](CCCNC(=N)N)NC(=O)[C@H](CO)NC3=O)NC(=O)[C@H](CCCCN)NC(=O)[C@H](CC(=O)O)NC(=O)[C@H](Cc2cccc3ccccc23)NC(=O)[C@H](CC(=O)O)NC(=O)[C@@H]2CCCN2C1=O [compound 163] (H-DCLGFMRKCIPD[1Nal]DKCCRPNLVCSRTHKWCKYVF-NH2; disulfide 2-17, 9-23, 16-30)
hNav1.3; Use
  IC50: 0.09 µM
hNav1.7; IonWorks Quattro, Use, read-out: IWQ Use Nav1.7
  IC50: 0.11 µM
hNav1.5; Use
  IC50: 8.27 µM

## CC[C@H](C)[C@@H]1NC(=O)[C@@H]2CSSC[C@@H]3NC(=O)[C@H](C(C)C)NC(=O)[C@H](CC(C)C)NC(=O)[C@H](CC(N)=O)NC(=O)[C@@H]4CCCN4C(=O)[C@H](CCCNC(=N)N)NC(=O)[C@H](CSSC[C@H](NC(=O)[C@@H](N)CC(=O)O)C(=O)N[C@@H](CC(C)C)C(=O)NCC(=O)N[C@@H](C)C(=O)N[C@@H](Cc4ccccc4)C(=O)N[C@@H](CCCNC(=N)N)C(=O)N[C@@H](CCCCN)C(=O)N2)NC(=O)[C@H](CSSC[C@@H](C(=O)N[C@@H](CCCCN)C(=O)N[C@@H](Cc2ccc(O)cc2)C(=O)N[C@H](C(=O)N[C@@H](Cc2ccccc2)C(=O)O)C(C)C)NC(=O)[C@H](Cc2c[nH]c4ccccc24)NC(=O)CNC(=O)[C@H](Cc2c[nH]cn2)NC(=O)[C@H]([C@@H](C)O)NC(=O)[C@H](CCCNC(=N)N)NC(=O)[C@H](CO)NC3=O)NC(=O)[C@H](CCCCN)NC(=O)[C@H](CC(=O)O)NC(=O)[C@H](CC(N)=O)NC(=O)[C@H](CC(=O)O)NC(=O)[C@@H]2CCCN2C1=O [compound 827] (H-DCLGAFRKCIPDNDKCCRPNLVCSRTHGWCKYVF-OH; disulfide 2-17, 9-23, 16-30)
hNav1.3; use-dependent block, hNav1.3
  IC50: > 5 µM
hNav1.7; [4]
  IC50: > 5 µM
hNav1.5; use-dependent block, hNav1.5
  IC50: > 5 µM
